Target: T1, human mAChR M4 (Homo sapiens, UniProt P08173)
T1 construct: expressed in transfected cells; host or cells: CHO-K1 (American Type Culture Collection), stably expressing hM4 and Gqi5
T1 sequence (P08173 1-479): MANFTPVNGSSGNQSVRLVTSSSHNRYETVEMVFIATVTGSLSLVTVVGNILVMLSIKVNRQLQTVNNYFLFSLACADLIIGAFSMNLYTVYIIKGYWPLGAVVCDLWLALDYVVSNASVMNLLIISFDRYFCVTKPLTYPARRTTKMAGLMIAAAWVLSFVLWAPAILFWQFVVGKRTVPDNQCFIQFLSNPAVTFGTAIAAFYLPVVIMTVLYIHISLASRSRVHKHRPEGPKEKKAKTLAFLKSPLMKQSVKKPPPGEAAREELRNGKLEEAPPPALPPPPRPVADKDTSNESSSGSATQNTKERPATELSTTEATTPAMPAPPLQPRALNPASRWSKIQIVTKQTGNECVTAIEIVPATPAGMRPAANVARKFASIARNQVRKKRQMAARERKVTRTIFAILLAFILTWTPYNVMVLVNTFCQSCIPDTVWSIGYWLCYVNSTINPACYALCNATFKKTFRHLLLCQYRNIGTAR
Assay: mAChR M4 cell-based functional assay: calcium mobilization (Fluo-4, FDSS), potentiation of EC20 acetylcholine response in hM4-Gqi5 CHO-K1 cells
Conditions: human M4; for Emax at 30 µM: CHO-K1, % ACh maximum at 30 μM; for EC50: potentiation of EC20 acetylcholine response, calcium mobilization
Outline: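 CHO-K1 cells stably co-expressing human M4 and chimeric Gqi5, loaded with Fluo-4 AM (50 min, 37 °C). Compounds in 11-point 1:3 series added first; EC20 acetylcholine added at 144 s and again at 230 s. Calcium read on FDSS at 1 Hz; EC50 and Emax from four-parameter logistic fit of potentiated EC20 response.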

SMILES	Emax at 30 µM	EC50
COCc1cc(=O)n2nc(N3CCc4ncc(-c5cc(F)ccc5C)cc4C3)c(C)cc2n1 [Compound 1-332, 7-(3-(5-fluoro-2-methylphenyl)-7,8-dihydro-1,6-naphthyridin-6(5H)-yl)-2-(methoxymethyl)-8-methyl-4H-pyrimido[1,2-b] pyridazin-4-one]	67%	244 nM
Cc1cc2nccc(=O)n2nc1N1CCc2ncc(-c3ccc(OC(F)F)nc3)cc2C1 [Compound 1-315, 7-(3-(6-(difluoromethoxy)pyridin-3-yl)-7,8-dihydro-1,6-naphthyridin-6(5H)-yl)-8-methyl-4H-pyrimido[1,2-b]pyridazin-4-one]	71%	448 nM
Cc1ccc(F)cc1Nc1cnc2c(c1)CN(c1nn3c(=O)ccnc3cc1C)CC2 [Compound 2-69, 7-(3-((5-fluoro-2-methylphenyl)amino)-7,8-dihydro-1,6-naphthyridin-6(5H)-yl)-8-methyl-4H-pyrimido[1,2-b]pyridazin-4-one]	96%	20 nM
CCc1ccccc1-c1cnc2c(c1)CN(c1nn3c(=O)cc(C)nc3cc1C)CC2 [Compound 1-232, 7-(3-(2-ethylphenyl)-7,8-dihydro-1,6-naphthyridin-6(5H)-yl)-2,8-dimethyl-4H-pyrimido[1,2-b]pyridazin-4-one]	57%	441 nM
COCc1cc(=O)n2nc(N3CCc4ncc(-c5ncc(F)cc5F)cc4C3)c(C)cc2n1 [Compound 1-382, 7-(3-(3,5-difluoropyridin-2-yl)-7,8-dihydro-1,6-naphthyridin-6(5H)-yl)-2-(methoxymethyl)-8-methyl-4H-pyrimido[1,2-b] pyridazin-4-one]	79%	467 nM
Cc1cc2nccc(=O)n2nc1N1CCc2ncc(-c3cnc(F)c(F)c3)cc2C1 [Compound 1-331, 7-(3-(5,6-difluoropyridin-3-yl)-7,8-dihydro-1,6-naphthyridin-6(5H)-yl)-8-methyl-4H-pyrimido [1,2-b]pyridazin-4-one]	53%	1250 nM
Cc1cc2nccc(=O)n2nc1N1CCc2ncc(Nc3cc(F)cc(F)c3)cc2C1 [Compound 2-105, 7-(3-((3,5-difluorophenyl)amino)-7,8-dihydro-1,6-naphthyridin-6(5H)-yl)-8-methyl-4H-pyrimido[1,2-b]pyridazin-4-one]	88%	19 nM
Cc1c(N2CCc3ncc(-c4cnn(C)c4C)cc3C2)nn2c(=O)ccnc2c1C [Compound 1-338, 7-(3-(1,5-dimethyl-1H-pyrazol-4-yl)-7,8-dihydro-1,6-naphthyridin-6(5H)-yl)-8,9-dimethyl-4H-pyrimido[1,2-b]pyridazin-4-one]	88%	131 nM
Cc1cc2n(n1)CCCN2c1cnc2c(c1)CN(c1nn3c(=O)ccnc3cc1C)CC2 [Compound 2-5, 8-methyl-7-(3-(2-methyl-6,7-dihydropyrazolo[1,5-a]pyrimidin-4(5H)-yl)-7,8-dihydro-1,6-naphthyridin-6(5H)-yl)-4H-pyrimido[1,2-b]pyridazin-4-one]	97%	60 nM
Cc1c(N2CCc3ncc(-c4cc(F)ncc4F)cc3C2)nn2c(=O)ccnc2c1C [Compound 1-268, 7-(3-(2,5-difluoropyridin-4-yl)-7,8-dihydro-1,6-naphthyridin-6(5H)-yl)-8,9-dimethyl-4H-pyrimido[1,2-b]pyridazin-4-one]	83%	230 nM
Cc1cc2nccc(=O)n2nc1N1CCc2ncc(Nc3ccc(Cl)nc3)cc2C1 [Compound 2-126, 7-(3-((6-chloropyridin-3-yl)amino)-7,8-dihydro-1,6-naphthyridin-6(5H)-yl)-8-methyl-4H-pyrimido[1,2-b]pyridazin-4-one]	79%	263 nM
Cc1cc(N)ncc1-c1cnc2c(c1)CN(c1nn3c(=O)ccnc3cc1C)CC2 [Compound 1-404, 7-(3-(6-amino-4-methylpyridin-3-yl)-7,8-dihydro-1,6-naphthyridin-6(5H)-yl)-8-methyl-4H-pyrimido[1,2-b]pyridazin-4-one]	97%	165 nM
Cc1ccc(-c2cnc3c(c2)CN(c2nn4c(=O)cc(C)nc4cc2C)CC3)c(C)c1 [Compound 1-292, 7-(3-(2,4-dimethylphenyl)-7,8-dihydro-1,6-naphthyridin-6(5H)-yl)-2,8-dimethyl-4H-pyrimido[1,2-b]pyridazin-4-one]	92%	477 nM
Cc1cc(=O)n2nc(N3CCc4ncc(N5CCOC(C)(C)C5)cc4C3)c(C)c(C)c2n1 [Compound 2-39, 7-(3-(2,2-dimethylmorpholino)-7,8-dihydro-1,6-naphthyridin-6(5H)-yl)-2,8,9-trimethyl-4H-pyrimido[1,2-b]pyridazin-4-one]	96%	123 nM
Cc1cc(=O)n2nc(N3CCc4ncc(-c5ccccc5C(C)C)cc4C3)c(C)cc2n1 [Compound 1-230, 7-(3-(2-isopropylphenyl)-7,8-dihydro-1,6-naphthyridin-6(5H)-yl)-2,8-dimethyl-4H-pyrimido[1,2-b]pyridazin-4-one]	43%	1300 nM
Cc1cc2nccn2cc1-c1cnc2c(c1)CN(c1nn3c(=O)ccnc3c(C)c1C)CC2 [Compound 1-296, 8,9-dimethyl-7-(3-(7-methylimidazo[1,2-a]pyridin-6-yl)-7,8-dihydro-1,6-naphthyridin-6(5H)-yl)-4H-pyrimido[1,2-b]pyridazin-4-one]	62%	563 nM
Cc1cc(=O)n2nc(N3CCc4ncc(-c5cccs5)cc4C3)c(C)cc2n1 [Compound 1-297, 2,8-dimethyl-7-(3-(thiophen-2-yl)-7,8-dihydro-1,6-naphthyridin-6(5H)-yl)-4H-pyrimido[1,2-b]pyridazin-4-one]	87%	76 nM
Cc1cncc(-c2cnc3c(c2)CN(c2nn4c(=O)cc(C)nc4cc2C)CC3)c1 [Compound 1-289, 2,8-dimethyl-7-(3-(5-methylpyridin-3-yl)-7,8-dihydro-1,6-naphthyridin-6(5H)-yl)-4H-pyrimido[1,2-b] pyridazin-4-one]	70%	4550 nM
COCc1c(C)c(N2CCc3ncc(C(F)(F)F)cc3C2)nn2c(=O)ccnc12 [Compound 1-276, 9-(methoxymethyl)-8-methyl-7-(3-(trifluoromethyl)-7,8-dihydro-1,6-naphthyridin-6(5H)-yl)-4H-pyrimido[1,2-b]pyridazin-4-one]	66%	
Cc1cc2nccc(=O)n2nc1N1CCc2ncc(Nc3cc(Cl)cnc3F)cc2C1 [Compound 2-116, 7-(3-((5-chloro-2-fluoropyridin-3-yl)amino)-7,8-dihydro-1,6-naphthyridin-6(5H)-yl)-8-methyl-4H-pyrimido[1,2-b]pyridazin-4-one]	92%	52 nM
Cc1cc2nccc(=O)n2nc1N1CCc2ncc(-c3ccc4nccn4c3)cc2C1 [Compound 1-53, 7-(3-(imidazo[1,2-a]pyridin-6-yl)-7,8-dihydro-1,6-naphthyridin-6(5H)-yl)-8-methyl-4H-pyrimido[1,2-b]pyridazin-4-one]	75%	699 nM
Cc1cc(=O)n2nc(N3CCc4ncc(-n5cccn5)cc4C3)c(C)cc2n1 [Compound 2-22, 7-(3-(1H-pyrazol-1-yl)-7,8-dihydro-1,6-naphthyridin-6(5H)-yl)-2,8-dimethyl-4H-pyrimido[1,2-b]pyridazin-4-one]	56%	97 nM

From patent US20250101041A1, “POSITIVE ALLOSTERIC MODULATORS OF THE MUSCARINIC ACETYLCHOLINE RECEPTOR M4” (Vanderbilt University, priority 2022, published 2025)
